Measurements: ChEMBL document CHEMBL1201862, “PubChem BioAssay data set” (2004)
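Grown in 96-well plates, cells were treated for 48 hours with each compound at five concentrations. Insufficient inhibition: endpoint recorded as highest concentration tested. GI50 is the concentration that inhibits growth by half.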 Activity calls are given as the source filed them. Cut-off read from the data, not from the text of the source: active = GI50 up to about 1.1 µM and inactive = higher.

Experiments:
Assay in all cases: NCI anticancer screen, dose series, 48 h
SNB-78 = tested on: SNB-78
NCI-H23 = tested on: NCI-H23
UACC-62 = tested on: UACC-62
DLD-1 = tested on: DLD-1
DMS-273 = tested on: DMS-273
XF498 = tested on: XF498
SK-OV-3 = tested on: SK-OV-3
OVCAR-3 = tested on: OVCAR-3
SNB-75 = tested on: SNB-75
A498 = tested on: A498
NCI-H226 = tested on: NCI-H226
M19-MEL = tested on: M19-MEL
HL-60 = tested on: HL-60
SK-MEL-28 = tested on: SK-MEL-28
KM12 = tested on: KM12
HCC 2998 = tested on: HCC 2998
SW-620 = tested on: SW-620
UO-31 = tested on: UO-31
DMS-114 = tested on: DMS-114
SNB-19 = tested on: SNB-19
HCT-15 = tested on: HCT-15
KM-20L2 = tested on: KM-20L2
COLO 205 = tested on: COLO 205
SK-MEL-2 = tested on: SK-MEL-2
NCI-H522 = tested on: NCI-H522
SF-268 = tested on: SF-268
U-251 = tested on: U-251
Malme-3M = tested on: Malme-3M
HOP-92 = tested on: HOP-92
A549 = tested on: A549
HOP-18 = tested on: HOP-18
SF-295 = tested on: SF-295
UACC-257 = tested on: UACC-257
SN12C = tested on: SN12C
K562 = tested on: K562
NCI-H460 = tested on: NCI-H460
CAKI-1 = tested on: CAKI-1
OVCAR-5 = tested on: OVCAR-5
SK-MEL-5 = tested on: SK-MEL-5
EKVX = tested on: EKVX
CCRF-CEM = tested on: CCRF-CEM
RPMI-8226 = tested on: RPMI-8226
RXF 393 = tested on: RXF 393
SF-539 = tested on: SF-539
MOLT-4 = tested on: MOLT-4
OVCAR-8 = tested on: OVCAR-8
IGROV-1 = tested on: IGROV-1
NCI/ADR-RES = tested on: NCI/ADR-RES
MCF7 = tested on: MCF7
HOP-62 = tested on: HOP-62
HCT-116 = tested on: HCT-116
OVCAR-4 = tested on: OVCAR-4
HT-29 = tested on: HT-29
LOX IMVI = tested on: LOX IMVI

## CN(C)CCNc1c([N+](=O)[O-])cc2c3c(cccc13)C(=O)N(CCN(C)C)C2=O
SNB-78
  GI50: 1.61 µM (inactive)
NCI-H23
  GI50: 1.78 µM (inactive)
UACC-62
  GI50: 1.75 µM (inactive)
DLD-1
  GI50: 1.52 µM (inactive)
DMS-273
  GI50: 1.07 µM (active)
XF498
  GI50: 1.55 µM (inactive)
SK-OV-3
  GI50: 1.76 µM (inactive)
OVCAR-3
  GI50: 1.79 µM (inactive)
SNB-75
  GI50: 1.7 µM (inactive)
A498
  GI50: 1.67 µM (inactive)
NCI-H226
  GI50: > 100 µM (inactive)
M19-MEL
  GI50: 1.6 µM (inactive)
HL-60
  GI50: 1.68 µM (inactive)
SK-MEL-28
  GI50: 1.67 µM (inactive)
KM12
  GI50: 8.18 µM (inactive)
HCC 2998
  GI50: 1.53 µM (inactive)
SW-620
  GI50: 0.593 µM (active)
UO-31
  GI50: 1.58 µM (inactive)
DMS-114
  GI50: 1.27 µM (inactive)
SNB-19
  GI50: 1.59 µM (inactive)
HCT-15
  GI50: 1.7 µM
KM-20L2
  GI50: 1.21 µM (inactive)
COLO 205
  GI50: 1.11 µM (active)
SK-MEL-2
  GI50: 1.77 µM (inactive)
NCI-H522
  GI50: 1.25 µM (inactive)
SF-268
  GI50: 2.2 µM (inactive)
U-251
  GI50: 1.82 µM (inactive)
Malme-3M
  GI50: 0.635 µM (active)
HOP-92
  GI50: 0.587 µM (active)
A549
  GI50: 1.84 µM (inactive)
HOP-18
  GI50: 1.52 µM (inactive)
SF-295
  GI50: 1.24 µM (inactive)
UACC-257
  GI50: 2.08 µM (inactive)
SN12C
  GI50: 1.46 µM (inactive)
K562
  GI50: 0.556 µM (active)
NCI-H460
  GI50: 0.653 µM (active)
CAKI-1
  GI50: 2.13 µM (inactive)
OVCAR-5
  GI50: 2.03 µM (inactive)
SK-MEL-5
  GI50: 2.18 µM (inactive)
EKVX
  GI50: 2.15 µM (inactive)
CCRF-CEM
  GI50: 0.893 µM (active)
RPMI-8226
  GI50: 2.33 µM (inactive)
RXF 393
  GI50: 1.42 µM (inactive)
SF-539
  GI50: 2.16 µM (inactive)
MOLT-4
  GI50: 0.476 µM (active)
OVCAR-8
  GI50: 1.05 µM (active)
IGROV-1
  GI50: 1.73 µM (inactive)
NCI/ADR-RES
  GI50: 1.54 µM (inactive)
MCF7
  GI50: 1.22 µM (inactive)
HOP-62
  GI50: 2.03 µM (inactive)
HCT-116
  GI50: 0.552 µM (active)
OVCAR-4
  GI50: 0.807 µM (active)
HT-29
  GI50: 0.61 µM (active)
LOX IMVI
  GI50: 1.08 µM (active)
